Assay results as given in patent US8691529B2, “Increasing protein production by increasing ABC50 expression or activity” (University Health Network, priority 2009, dated 2014).

Legend:
E2R2 cells = experiment: Apoptosis induction by Ec, AnnexinV/PI flow cytometry, E2R2 cells; format: cell-based, Human; conditions: 15 μM Ec for 2 hours, overnight recovery
Experimental: FIG. 2 ABC50 knockdown partially reverses resistance to Ec in E2R2 cells. A: Western blot of ABC50 expression in E2R2 cells infected with vector control or ABC50 shRNA. B: Apoptosis induction by Ec in E2R2 vector control and ABC50 knockdown cells. Cells were exposed to 15 μM Ec for 2 hours followed by overnight recovery as described in Materials and Methods. The following day, cells were stained with PI and AnnexinV and analysed by flow cytometry. AnnexinV positive, PI negative cells represent early apoptotic cells, AnnexinV positive, PI positive cells represent late apoptotic or necrotic cells.
(§1) To measure apoptosis induced by Econazole (Ec; Sigma-Aldrich, St. Louis, Mo.), cells were treated with Ec in RPMI containing 1% FBS for 2 hours at 37° C. then further incubated overnight in RPMI containing 10% FBS. Apoptosis induced by thapsigargin (Tg; Sigma-Aldrich) or Tunicamycin (Tu; Sigma-Aldrich) was determined after overnight incubation in RPMI containing 1% FBS. The cells were washed with PBS and stained with Annexin V-cy5 Apoptosis Detection kit (Biovision. Inc., Mountain View, Calif.)/PI and analysed by flow cytometry.

[1] = tested on: ser51-phosphorylated eIF2α; experiment: ER stress response, Western blot of ser51-phosphorylated eIF2α; format: cell-based, Human; conditions: Ec 15 μM, Tg 200 nM, 60 minutes; for induction of increased levels of phosphorylated eIF2α: ABC50 knockdown cells vs vector control; for levels of phosphorylated eIF2α: ABC50 overexpressing cells, Tu 200 ng/ml
Experimental: FIG. 6. ABC50 knockdown or overexpression alters the ER stress response. Vector controls, knockdown (A, B) or overexpressing cells (C, D) were exposed to Ec (15 μM), Tg (200 nM) or Tu (200 ng/ml) for 60 minutes. The cells were collected, lysed in RIPA buffer, resolved by SDS-PAGE and analysed with anti-sera specific for A, C: ser51-phosphorylated eIF2α or total eIF2α, B, D: BiP or actin. Numbers represent relative expression levels compared to control normalized to either total eIF2α or actin. The blots are representative of two independent experiments.
Cells were washed with PBS and lysed with Triple lysis buffer (50 mM Tris pH7.0, 150 mM NaCl, 0.1% SDS, 1% NP-40 and 0.5% DOC). Proteinase inhibitor (Boehringer) was added to 10 ml lysis buffer before use. Protein concentration was determined with the Pierce BCA kit. 20 μg of total protein was loaded onto 10% SDS-PAGE, transferred onto filters and blotted with rabbit anti-human ABC50 polyclonal serum (kind gift from Dr. C. Proud, Vancouver, Canada). eIF2α and its phosphorylated form (Ser51) were detected with rabbit polyclonal antibodies from Cell Signalling (Danvers, Mass.). Mouse anti-BiP/GRP78 antibodies were obtained from BD Biosciences (San Jose, Calif.) Anti-actin (pan Ab-5, Clone ACTN05) (Labvision/Neomarker, Fremont, Calif.) was used as a loading control.

HL60 cells [2] = experiment: Global protein synthesis, 3H-leucine incorporation; format: cell-based, Human; conditions: 15 μM Ec for 15 minutes
Experimental: FIG. 8 Effect of ABC50 knockdown or overexpression on global protein synthesis. Cells were incubated with 15 μM Ec for 15 minutes, pulse-labelled with 3H-leucine and incorporation was measured as described in Materials and Methods. A: Vector control vs ABC50 knock-down. B: Vector control vs ABC50 overexpression. The values are averages and standard errors from 4 replicates. This experiment was repeated six times. *p<0.05, **p<0.01 comparing knockdown or overexpressing cells to their vector control.
Cells (2×10^5/sample) were collected, washed with PBS and then re-suspended in RPMI supplemented with fatty acid-free bovine serum albumin (BSA; 0.05%; Sigma). Cells were treated with Ec (0, 15 μM) for 15 min. After centrifugation (2,500 rpm; 5 min), cells were pulse-labeled with [^3H]-leucine (50 μCi/ml) for 10 min (37° C.; 5% CO2) in leucine-free RPMI. After two washes in RPMI, pellets were lysed with Triton X-100 (0.5% in PBS) followed by trichloroacetic acid (TCA, 10% w/v; 4° C.). Samples were washed in TCA (5% w/v), and the protein pellets were re-suspended in microscintillant (Packard, Conn., USA) and measured using a microplate scintillation counter (Packard).

HL60 cells [3] = experiment: Apoptosis induction by ER stress agents and etoposide, AnnexinV/PI flow cytometry, HL60 cells; format: cell-based, Human; conditions: 15 μM Ec 2 hours, 200 nM Tg, 1 μM Tu or 5 μM etoposide overnight; for sensitivity to apoptosis induction, ABC50 knockdown vs vector control: HL60 ABC50 knockdown cells; for sensitivity to apoptosis induction, ABC50 overexpressing vs control cells: HL60 ABC50 overexpressing cells
Experimental: FIG. 3 ABC50 knockdown alters growth rate and sensitivity to Ec in HL60 cells. A: Western blot of ABC50 expression in HL60 cells infected with vector control or ABC50 shRNA. B: Cell growth kinetics of control and ABC50 knocked-down cells. Values are means and standard errors determined from triplicate cultures and is representative measurement from a series of three independent experiments. ***indicates p<0.001 at 48 hours for ABC50 KD cells vs control. C: Apoptosis induction by serum withdrawal (SW), Ec, Tg, Tu and etoposide (Eto) in HL60 vector control and ABC50 knockdown cells. Cells were exposed to 15 μM Ec for 2 hours followed by overnight recovery as described in Materials and Methods. Cells were incubated overnight in the absence of serum, 200 nM Tg, 1 μM Tu or 5 μM etoposide. The following day, cells were stained with PI and AnnexinV and analysed by flow cytometry. AnnexinV positive, PI negative cells represent early apoptotic cells, AnnexinV positive, PI positive cells represent late apoptotic or necrotic cells. Plotted is early and late apoptotic cells combined. *p<0.05, **p<0.01 comparing knockdown or overexpressing cells to their vector control.
FIG. 4 Effect of ABC50 overexpression on growth rate and sensitivity to ER stress agents in HL60 cells. A: Western blot of ABC50 expression in HL60 cells infected with vector control or ABC50 OE vector. B: Cell growth kinetics of control and ABC50 overexpressing cells. Values are means and standard errors determined from triplicate cultures and is representative measurement from a series of three independent experiments. C: Apoptosis induction by serum withdrawal (SW), Ec, Tg, Tu and etoposide (Eto) in HL60 vector control and ABC50 overexpressing cells. Cells were exposed to 15 μM Ec for 2 hours followed by overnight recovery as described in Materials and Methods. Cells were incubated overnight in the absence of serum, 200 nM Tg, 1 μM Tu or 5 μM etoposide. The following day, cells were stained with PI and AnnexinV and analysed by flow cytometry. AnnexinV positive, PI negative cells represent early apoptotic cells, AnnexinV positive, PI positive cells represent late apoptotic or necrotic cells. Plotted is early and late apoptotic cells combined. *p<0.05, **p<0.01 comparing knockdown or overexpressing cells to their vector control.
as §1

sp2 cells = experiment: Cell viability of Ec-selected sp2 cells, Trypan Blue staining; format: cell-based, mouse; conditions: exposure overnight
Experimental: FIG. 10. Generation of Ec-resistant sp2 cells. Sp2 cells were exposed to increasing concentrations of Econazole. Cells remaining after treatment were expanded and subjected to additional rounds of selection. A: cell viability for unselected (U) and selected (S) cells. Exposure to Econazole was for 2 hours in low serum medium, followed by a recovery period of 24 hours in full growth medium. Cells were exposed to Thapsigargin (Tg) and Tunicamycin (Tu) overnight. Cell viability was determined by Trypan Blue staining of 200 cells. B: Western blot of ABC50 expression in sp2 cells selected for resistance to Ec showing increased expression. C: Quantitation of expression normalized to actin. **p<0.01, ***p<0.001 comparing selected vs unselected.

| Molecule | combined early and late apoptosis (E2R2 cells; E2R2 ABC50 knockdown cells) [%] | combined early and late apoptosis (E2R2 cells; E2R2 vector control cells) [%] | induction of increased levels of phosphorylated eIF2α [1] | levels of phosphorylated eIF2α [1] | protein synthesis rates after exposure (HL60 cells [2]; ABC50 knock down cells) | protein synthesis level after exposure, compared to control cells (HL60 cells [2]; ABC50 overexpressing cells) | protein synthesis levels after exposure (HL60 cells [2]; vector control cells) | sensitivity to apoptosis induction, ABC50 knockdown vs vector control (HL60 cells [3]) | sensitivity to apoptosis induction, ABC50 overexpressing vs control cells (HL60 cells [3]) | resistance of Ec-resistant sp2 cells (cell viability, selected vs unselected) (sp2 cells) |
| --- | --- | --- | --- | --- | --- | --- | --- | --- | --- | --- |
| Clc1ccc(COC(Cn2ccnc2)c2ccc(Cl)cc2Cl)cc1 (centres unmarked) [Ec, 1-[2-[(4-chlorophenyl)methoxy]-2-(2,4-dichlorophenyl)ethyl]-1H-imidazole] | 21.4 | 7.6 | particularly effective | reduced levels | reduced protein synthesis rates even further | significantly less reduced | significant decrease | significantly increased the sensitivity | decreased sensitivity | – |
| C/C=C(/C)C(=O)O[C@H]1C(C)=C2[C@H]([C@@H]1OC(=O)CCCCCCC)[C@@](C)(OC(C)=O)C[C@H](OC(=O)CCC)[C@@]1(O)[C@H]2OC(=O)[C@@]1(C)O [Tg, thapsigargin] | – | – | particularly effective | reduced levels | – | – | – | significantly increased the sensitivity | decreased sensitivity | relatively resistant |
| COc1cc([C@@H]2c3cc4c(cc3[C@@H](O[C@@H]3O[C@@H]5CO[C@@H](C)O[C@H]5[C@H](O)[C@H]3O)[C@H]3COC(=O)[C@H]23)OCO4)cc(OC)c1O [etoposide] | – | – | – | – | – | – | – | did not affect sensitivity | unchanged | – |
| Tunicamycin | – | – | – | reduced levels | – | – | – | significantly increased the sensitivity | decreased sensitivity | relatively resistant |
